Reference: the OligoGym collection
After the bases stand the sugars from the 5' end (letter, count) and the backbone: PS all phosphorothioate, else s phosphorothioate and o phosphodiester by linkage. Methylation of C is not given here. l = locked nucleic acid (LNA); d = 2'-deoxy (DNA)

Biological target: SNHG14
Details: ASO
[1] = Mouse Primary Neuronal Cell, 0.005 µM

Row | Sequence | target mRNA inhibition (Human Neuronal Cell, 7.5 µM) [%] | target mRNA inhibition (Human Neuronal Cell, 0.2 µM) [%] | target mRNA inhibition (Human Neuronal Cell, 1 µM) [%] | further results
1 | AAATCTCAACTACCATTTTT (sugars ldldddldddddddllldll, PS) | 14 |  |  | 
2 | AAATCTCAACTACCATTTTT (sugars lldddllddddddlddllll, PS) | 29 |  |  | 
3 | AAATTATTTATACACCATCA (sugars l4 d10 l1 d2 l3, PS) | 66 |  |  | 
4 | AAATTATTTATACACCATCA (sugars llddldldddddddddllll, PS) | 67 |  |  | 
5 | AAATTATTTATACACCATCA (sugars lldlldldddddddldddll, PS) | 71 |  |  | 
6 | AAATTATTTATACACCATCA (sugars lllddllddddddlldddll, PS) | 64 |  |  | 
7 | AAATTGTCTACCTTCCT (sugars l2 d12 l3, PS) |  | 29 | 19 | 
8 | AACCAATTATACTTACA (sugars l4 d11 l2, PS) |  | 40 | 51 | 
9 | AACTCTCACTGTAACTT (sugars l3 d11 l3, PS) |  | 32 | 42 | 
10 | AACTGTTTATACCCTTT (sugars l4 d11 l2, PS) |  | 51 | 55 | 
11 | AATGCTCACACTAATT (sugars l4 d10 l2, PS) |  | 37 | 54 | 
12 | AATTATTTATACACCAT (sugars l2 d11 l4, PS) |  | 2 | 32 | 
13 | AATTATTTATACACCATCAT (sugars llddldddddddddldllll, PS) | 70 |  |  | 
14 | AATTATTTATACACCATCAT (sugars llldllddddddddlddlll, PS) | 64 |  |  | 
15 | ACATCTCATACTTGCT (sugars l2 d10 l4, PS) |  | -10 | -5 | target mRNA inhibition (Human Neuronal Cell, 5 µM): 8%; target mRNA inhibition [1]: 96%
16 | ACATCTCATACTTGCT (sugars l2 d12 l2, PS) |  | -13 | -7 | target mRNA inhibition (Human Neuronal Cell, 5 µM): 4%; target mRNA inhibition [1]: 93.9%
17 | ACATGTCCCTTTATAT (sugars l2 d12 l2, PS) |  | -9 | -2 | target mRNA inhibition (Human Neuronal Cell, 5 µM): 15%
18 | ACATGTCCCTTTATAT (sugars l3 d10 l3, PS) |  | 1 | -13 | target mRNA inhibition (Human Neuronal Cell, 5 µM): 6%; target mRNA inhibition [1]: 88.2%
19 | ACCTACATCTCATACTT (sugars l2 d13 l2, PS) |  | 3 | -18 | target mRNA inhibition (Human Neuronal Cell, 5 µM): 7%; target mRNA inhibition [1]: 88.6%
20 | ACCTACATCTCATACTT (sugars l3 d11 l3, PS) |  | 1 | -10 | target mRNA inhibition (Human Neuronal Cell, 5 µM): 6%; target mRNA inhibition [1]: 94.2%
21 | ACTCTGCAATACACCA (sugars l3 d10 l3, PS) |  | 52 | 56 | 

Row | Sequence | target mRNA inhibition (Human Neuronal Cell, 7.5 µM) [%] | target mRNA inhibition (Human Neuronal Cell, 0.2 µM) [%] | target mRNA inhibition (Human Neuronal Cell, 1 µM) [%] | further results
22 | ACTCTGCAATACACCAA (sugars l2 d1 l2 d9 l3, PS) | 55 |  |  | 
23 | ACTCTGCAATACACCAA (sugars l2 d11 l4, PS) | 59 |  |  | 
24 | ACTCTGCAATACACCAA (sugars lddldddddddldldll, PS) | 66 |  |  | 
25 | ACTCTGCAATACACCAA (sugars lldlddddddddlldll, PS) | 65 |  |  | 
26 | ACTCTTTAGATTCATC (sugars l2 d10 l4, PS) |  | 53 | 44 | 
27 | ACTGTTTATACCCTTTC (sugars l2 d9 l1 d3 l2, PS) | 49 |  |  | 
28 | ACTGTTTATACCCTTTC (sugars ldddlddddddlddlll, PS) | 53 |  |  | 
29 | ACTGTTTATACCCTTTC (sugars ldlddddddddldldll, PS) | 63 |  |  | 
30 | ACTGTTTATACCCTTTCC (sugars l1 d3 l1 d11 l2, PS) | 49 |  |  | 
31 | ACTGTTTATACCCTTTCC (sugars lddldlddddddddddll, PS) | 53 |  |  | 
32 | ACTTCCAGATTTCTACA (sugars l2 d11 l4, PS) |  | 54 | 63 | 
33 | AGACTAATCCTCTTAA (sugars l3 d10 l3, PS) |  | 38 | 52 | 
34 | AGATCATTCTCAACAATTA (sugars ldldlldddddddddddll, PS) | 57 |  |  | 
35 | AGCAACATTATTAACCAC (sugars llldlddddddddlddll, PS) | 46 |  |  | 
36 | AGCAACATTATTAACCACC (sugars l1 d15 l3, PS) | 38 |  |  | 
37 | AGCAACATTATTAACCACC (sugars l2 d11 l1 d3 l2, PS) | 48 |  |  | 
38 | AGCAACATTATTAACCACC (sugars lddlldddddddlddldll, PS) | 46 |  |  | 
39 | AGCTTTTAACCAGAGT (sugars l2 d10 l4, PS) | 81 |  |  | 
40 | AGCTTTTAACCAGAGTGGC (sugars l1 d16 l2, PS) | 56 |  |  | 
41 | AGCTTTTAACCAGAGTGGCA (sugars l1 d17 l2, PS) | 64 |  |  | 
42 | AGTTCACTACTATTAC (sugars l3 d10 l3, PS) |  | 52 | 63 | 

Row | Sequence | target mRNA inhibition (Human Neuronal Cell, 7.5 µM) [%] | target mRNA inhibition (Human Neuronal Cell, 0.2 µM) [%] | target mRNA inhibition (Human Neuronal Cell, 1 µM) [%] | further results
43 | AGTTCTACTATACTTTC (sugars l1 d10 l6, PS) | 47 |  |  | 
44 | AGTTCTACTATACTTTC (sugars l3 d8 l2 d2 l2, PS) | 12 |  |  | 
45 | AGTTCTACTATACTTTCC (sugars l1 d2 l1 d12 l2, PS) | 43 |  |  | 
46 | AGTTCTACTATACTTTCC (sugars l1 d13 l1 d1 l2, PS) | 47 |  |  | 
47 | ATATACCCAAAGGCACCT (sugars l3 d12 l3, PS) |  | -13 | 15 | target mRNA inhibition (Human Neuronal Cell, 5 µM): 21%
48 | ATATTGATTCAATTCCC (sugars l2 d9 l2 d1 l3, PS) | 66 |  |  | 
49 | ATATTGATTCAATTCCC (sugars lddlldddddddlldll, PS) | 63 |  |  | 
50 | ATATTGATTCAATTCCC (sugars ldlddddddddlddlll, PS) | 67 |  |  | 
51 | ATATTGATTCAATTCCC (sugars ldldldddddddldlll, PS) | 70 |  |  | 
52 | ATCAATATCTTCTCAC (sugars l3 d10 l3, PS) |  | 54 | 62 | 
53 | ATCATTCTCAACAATTA (sugars l4 d11 l2, PS) |  | 59 | 70 | 
54 | ATCATTCTCAACAATTAAA (sugars l1 d1 l4 d6 l7, PS) | 13 |  |  | 
55 | ATCATTCTCAACAATTAAA (sugars l4 d8 l7, PS) | 27 |  |  | 
56 | ATCATTCTCAACAATTAAA (sugars llllldddddddlldldll, PS) | 41 |  |  | 
57 | ATCTCAACTACCATTT (sugars l4 d10 l2, PS) |  | 67 | 67 | 
58 | ATCTCATGACCACCTA (sugars l3 d10 l3, PS) |  | 60 | 70 | 
59 | ATCTCATGACCACCTAA (sugars l1 d3 l1 d8 l4, PS) | 58 |  |  | 
60 | ATCTCATGACCACCTAA (sugars l3 d11 l3, PS) |  | 54 | 56 | 
61 | ATCTCATGACCACCTAA (sugars lddlldddddddldlll, PS) | 68 |  |  | 
62 | ATCTCATGACCACCTAA (sugars ldlddddddddddldll, PS) | 61 |  |  | 
63 | ATCTTCAAGAATTCTC (sugars l3 d10 l3, PS) |  | 44 | 48 | 
